Patent US20250206704A1, “ENGINEERED IONOPHORES FOR TRANSPORT OF METAL IONS” (The Brigham and Women's Hospital, Inc., priority 2022, published 2025)
Read-outs that look alike come from different tables or passages of the source.

How the values were obtained:
Assay type in all cases: cell-based
bacteria vs U2OS cells = assay: Antibacterial selectivity (average molar MIC in bacteria vs EC50 in U2OS cells)
U2OS cells [1] = assay: ICP-MS analysis of intracellular Zn(II) in U2OS cells; settings: 10 μM Zn(II) and 5 μM compound, 1 hour
Description: Next, Applicants used inductively coupled plasma mass spectrometry (ICP-MS) to validate the imaging assay and the ionophores activity (FIG. 1F). While the intracellular Zn^II levels where similar between DMSO and chelator 1, Zn^II concentrations inside cells were 3-fold higher when Applicants co-treated ionophores 8 and 9.
U2OS cells (˜200,000) were plated in a 6-well dish. After a day, the medium was aspirated, and Zn(II) (10 μM) and compounds (5 μM) containing media (2 mL) were added to each appropriate well. Cells were harvested by first washing each well with PBS containing EDTA (100 μM, 2×2.0 mL) and subsequently adding Milli-Q water ([…] to each well and incubating for 2-4 min. A portion of the resulting cell lysate (900 μL) was collected and transferred to an Eppendorf Safe-Lock tube, snap-frozen in N2(l), and then thawed at room temperature (RT) for a total of three freeze-thaw cycles. The insoluble lysate was pelleted (10 min at 10,000 g), and the soluble protein concentration of each sample was determined using the Pierce 660 nm Protein Assay in a 96-well plate (200 μL of reagent, 14 μL of sample, bovine serum albumin standard curve). Samples were then frozen and lyophilized overnight, and the resulting white, flaky solid was taken up in concentrated nitric acid (200 μL, ultrapure for trace metal analysis, BDH Aristar) and heated at 70° C. for 1 h. A portion of each sample (142 μL) was then diluted with water (2 mL) and a terbium internal standard (Agilent 5190-8590; stock at 10,000 parts per billion [ppb] in 10% nitric acid diluted to 100 ppb in Milli-Q water for addition to samples, 2 ppb final concentration), after which the metal content of the samples was assessed by ICP-MS. […] Therefore, 1 ppb was taken to be equal to 1 μg/L, and the molarity of a particular solution was considered equal to the measured concentration of a particular ion in ppb, divided by the molecular weight of the ion, multiplied by 10-6.

[2] = tested on: S. epidermidis, S. caprae, B. subtilis, B. cereus; assay: Average MIC over the four gram-positive strains
Description: Next, Applicants evaluated the antibacterial activities of the ionophores. First, Applicants determined their minimum inhibitory concentration (MIC) in the gram-positive bacterium that causes hospital-acquired infections, Staphylococcus epidermidis.
The MIC assay was performed according to the Clinical and Laboratory Standards Institute protocols.^3 The antibacterial activities of the compounds were measured using the broth microdilution method. Serial dilutions of compounds were prepared in cation-adjusted Müller Hinton Broth. Each dilution (100 μL) was dispensed to each well of a round-bottom plate to obtain final concentrations ranging from 0.07815-40 μM. Bacteria were grown at 37° C. overnight on cation-adjusted Müller Hinton Broth. The bacterial solution was prepared in 0.9% saline and adjusted to obtain an OD600=0.1 using a SpectraMax M5 (Molecular Devices). The resultant suspension was diluted 1:20 with cation-adjusted Müller Hinton Broth. The resulting mixture (10 μL) was added to each well of the plates (approximately 5×10^4 CFU/well), mixed, and incubated at 37° C. for 24 h. The MIC value was determined as the minimum concentration that inhibited the growth of bacteria.

U2OS cells [3] = assay: Zinc imaging assay (DA-ZP1 fluorescence) of ionophore activity in U2OS cells; settings: for ionophore activity (DA-ZP1 fluorescence): U2OS cells, 10 μM Zn(II) and 5 μM compound
Description: A number of bispicolyl-based Zn^II-chelators were synthesized with increasing size at the ortho-position of phenolic OH by a one-step reductive amination between bispicolyl-amine and commercially available 3-substituted salicylaldehydes. Applicants examined the ionophore activity of bispicolyl analogs with methyl (Me, 2), isopropyl (iPr, 3), and tert-butyl (tBu, 4) substitutions (FIG. 1A). […] [13] The cells were first treated with ZnCl2 and ionophore candidates followed by DA-ZP1 treatment and fluorescence measurement.
Applicants experimentally determined the ionophore activity of these silyl-based compounds using the aforementioned DAZ-P1 assay in U2OS cells.
Applicants also determined metal-ion interference of the silyl-based ionophores with focused efforts on 8. Applicants designed a competition assay wherein Applicants pre-treated equimolar amounts of various metal ions, Mg^II, Ca^II, Mn^II, Fe^II, and Na^I, with 10 μM of Zn^II for 1 hour before treatment with DA-ZP1.
Finally, Applicants compared the activity of the designed compounds against known ionophores (FIGS. 2 and 11). […] [16]
In a 96-well plate, 20,000 U2OS cells were plated per well and cultured for 24 h in the incubator set to 37° C. with 5% CO2. […] The medium containing the compound was removed, and the cells were washed with 3×100 μL of fresh medium, and finally another 100 μL of 2 μM of DA-ZP1 was added to the corresponding cell culture medium containing HCS NuclearMask Blue Stain. The cells were again kept for 1 h in the incubator. The medium containing compound was removed, and the cells were washed with 1×100 μL of PBS and 2×100 μL of fresh medium, and finally, another 100 μL of fresh, dye-free medium was added. The cells were immediately imaged using a high-content fluorescence microscope (Operetta Phenix) in both the DAPI and FITC channels at 20× magnification. Images were analyzed using the Harmony software, and data were plotted using GraphPad Prism 9.

U2OS cells [4] = assay: U2OS cell viability assay (CellTiter-Glo); settings: Homo sapiens, cell viability, 48 h, 5 μM Zn^II, read-out: U2OS EC50 + 5 μM Zn^II
Description: Applicants reasoned that limiting extracellular zinc with EDTA would abolish ionophore activity by depleting the available metal ions for membrane transport. […] [24]
U2OS cells were seeded in black 384-well plates at a density of 3,000 cells per well in 25 μL of medium per well. After seeding, the cells were left to adhere overnight. The compounds to be tested were added to the designated culture plates in 25 μL of medium in triplicate with a normalized DMSO concentration (0.05%) in all treatments, and the plates were placed at 37° C. in a humidified atmosphere containing 5% CO2. After 48 h, 40 μl of CellTiter-Glo (Promega) was added to each well and incubated for 30 min, after which the plate luminescence was analyzed in a PerkinElmer EnVision Manager 1.13 (PerkinElmer). The average growth of treated cells was calculated by correcting the values for background luminescence and was subsequently normalized to the average of the two lowest treatments of the compound in question. Data were plotted and fitted to a dose-response curve using GraphPad Prism 9.

[5] = ratio of average molar MIC and U2OS EC50, Table 4
[6] = read-out: Average MIC (molar, in brackets)

## CC(C)(C)[Si](C)(C)c1cccc(CN(Cc2ccccn2)Cc2ccccn2)c1O [Compound 8, 2-((bis(pyridin-2-ylmethyl)amino)methyl)-6-(tert-butyldimethylsilyl)phenol]
Bacteria vs U2OS cells
  antibacterial selectivity: 9.4 times
Bacteria vs U2OS cells; [5]
  antibacterial selectivity: 9.4
U2OS cells [1]
  intracellular Zn^II level relative to DMSO: 3 fold
[2]; read-out: Average MIC
  MIC: 3.4 µg/mL
[2]; [6]
  MIC: 8.1 µM
U2OS cells [3]
  ionophore activity (DA-ZP1 fluorescence): improved ionophore activity
U2OS cells [3]; competition: 10 μM Mg^II, Ca^II, Mn^II, Fe^II or Na^I with 10 μM Zn^II and 10 μM compound
  metal-ion interference with ionophore activity (average fluorescence intensity): did not observe significant drops in average fluorescence intensity for most metal ions
U2OS cells [4]
  CC50: 76.5 µM

## CC(C)[Si](c1cccc(CN(Cc2ccccn2)Cc2ccccn2)c1O)(C(C)C)C(C)C [Compound 9, 2-((bis(pyridin-2-ylmethyl)amino)methyl)-6-(triisopropylsilyl)phenol]
Bacteria vs U2OS cells
  antibacterial selectivity: 6.8 times
Bacteria vs U2OS cells; [5]
  antibacterial selectivity: 6.8
U2OS cells [1]
  intracellular Zn^II level relative to DMSO: 3 fold
[2]; read-out: Average MIC
  MIC: 0.98 µg/mL
[2]; [6]
  MIC: 2.1 µM
[2]; read-out: average MIC
  MIC: 1 µg/mL
U2OS cells [3]
  ionophore activity (DA-ZP1 fluorescence): improved ionophore activity
U2OS cells [4]
  CC50: 14.2 µM
